Values quoted from earlier work, collected in patent US9035093B2 (Colgate-Palmolive Company, priority 2009, dated 2015).

Settings: room temperature, natural partial pressure (3.5×10^−4 atmosphere)

maximum concentration of carbon dioxide in water: 12 µM
Compound: O=C=O [Carbon dioxide]
